From publication PMC2770649 (Nucleic Acids Research, 2009)

Columns and labels:
human DNA pol ι = biological target: T1, human DNA pol ι (Homo sapiens, UniProt Q9UNA4); test: Reporter-strand displacement assay, 1536-well format, pol ι; type: biochemical; conditions: IC50 against pol ι, approximate value
T1 sequence (Q9UNA4 1-740): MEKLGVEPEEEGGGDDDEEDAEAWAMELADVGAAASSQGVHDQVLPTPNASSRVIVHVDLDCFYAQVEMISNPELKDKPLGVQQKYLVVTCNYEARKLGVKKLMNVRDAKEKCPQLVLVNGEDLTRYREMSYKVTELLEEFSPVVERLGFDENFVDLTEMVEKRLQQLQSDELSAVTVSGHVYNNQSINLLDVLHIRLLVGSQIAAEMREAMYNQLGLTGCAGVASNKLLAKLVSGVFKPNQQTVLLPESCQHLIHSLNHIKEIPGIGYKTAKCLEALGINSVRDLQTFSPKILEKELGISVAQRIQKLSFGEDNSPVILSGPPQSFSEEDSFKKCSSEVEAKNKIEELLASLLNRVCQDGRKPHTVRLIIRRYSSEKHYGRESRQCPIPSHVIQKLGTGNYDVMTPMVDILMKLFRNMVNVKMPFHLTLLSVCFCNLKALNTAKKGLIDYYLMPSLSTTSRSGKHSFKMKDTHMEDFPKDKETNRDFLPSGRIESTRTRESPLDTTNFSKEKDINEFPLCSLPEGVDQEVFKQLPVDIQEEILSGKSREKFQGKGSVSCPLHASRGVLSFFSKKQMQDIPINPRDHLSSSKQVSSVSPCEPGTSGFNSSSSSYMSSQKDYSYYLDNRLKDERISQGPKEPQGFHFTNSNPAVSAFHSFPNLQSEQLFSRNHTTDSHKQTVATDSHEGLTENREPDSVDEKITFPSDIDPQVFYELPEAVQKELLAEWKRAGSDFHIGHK

human DNA pol β = human DNA pol β (Homo sapiens, UniProt P06746); test: Reporter-strand displacement assay, 1536-well format, pol β; type: biochemical; conditions: IC50 against pol β, approximate value

IC50 (human DNA pol ι) [µM] | IC50 (human DNA pol β) [µM] | SMILES
~0.09 | ~0.02 | O=C(O)C1=CC(=C(c2ccc(O)c(C(=O)O)c2)c2ccc(O)c(C(=O)O)c2)C=CC1=O [Aurintricarboxylic acid]
~0.09 | ~0.02 | O=c1oc2c(O)c(O)cc3c(=O)oc4c(O)c(O)cc1c4c23 [Ellagic acid]
